Assay results from patent US5449680A, “2,2 disubstituted glycerol and glycerol-like compounds, compositions and methods of use” (Schering Corporation, priority 1992, dated 1995).

System: PAF-induced platelet aggregation
Assay: PAF-induced platelet aggregation in human platelet-rich plasma (PRP), in vitro PAF antagonism assay
Assay type: cell-based
Details: Dose 5 μM, 37° C, 2 min preincubation, PAF 1-5×10^-8 M, read-out: Percent Inhibition
Method: These test procedures are standard tests used to determine PAF antagonistic activity and to evaluate the usefulness of said compounds for counteracting the biological effects of PAF. The in vitro assay is a simple screening test, while the in vivo test mimics clinical use of the compounds described herein.
Preparation of platelet-rich plasma (PRP): Human blood (50 ml) was collected from healthy male donors in an anticoagulant solution (5 ml) containing sodium citrate (3.8%) and dextrose (2%). Blood was centrifuged at 110× g for 15 min. and the supernatant (PRP) carefully transferred into a polypropylene tube. Platelet-poor-plasma (PPP) was prepared by centrifuging PRP at 12,000× g for 2 min. (Beckman Microfuge B). PRP was used within 3 hours of drawing the blood.
Platelet Aggregation Assay: When an aggregating agent such as PAF is added to PRP, platelets aggregate. An aggregometer quantifies this aggregation by measuring light transmission through PRP and comparing to PPP. The aggregation assays were performed using a dual channel aggregometer (Model 440, Chrono-Log Corp., Havertown, Penn.). PRP (0.45 ml)in aggregometer cuvettes was continually stirred (37° C). Solutions of test compounds or vehicle were added to the PRP, and after incubation for 2 min., 10-15 […] aliquots of PAF solution were added so as to achieve a final concentration of 1-5×10^-8 M. Incubations were continued until the increase in light transmission reached a maximum (usually 2 min). Values for inhibition were calculated by comparing maximal aggregation obtained in the absence and the presence of the compound. For each experiment, a standard PAF antagonist such as alprazolam was used as a positive internal control. The inhibitory concentration (IC50)is the concentration of compound in micromoles at which 50% of the aggregation is inhibited, as measured by the light transmission through each sample of PRP as compared to PPP.

| Structure (SMILES) | inhibition at 5 µM |
| --- | --- |
| CCCCCCCCCCCCCCCCCCN(C)C(=O)OCC(C)(COP(=O)([O-])OCC[n+]1ccsc1)OC (centres unmarked) | 50% |

Same assay, conditions: Dose 10 μM, 37° C, 2 min preincubation, PAF 1-5×10^-8 M, read-out: Percent Inhibition

| Structure (SMILES) | inhibition at 10 µM |
| --- | --- |
| CCCCCCCCCCCCCCCCCCNC(=O)OCC(C)(COP(=O)([O-])OCC[n+]1ccsc1)OC (centres unmarked) | 50% |
| CCCCCCCCCCCCCCCCCCN(C)C(=O)OCC(C)(COCCCC[n+]1ccsc1)OC (centres unmarked) | 100% |
| CCCCCCCCCCCCCCCCCCN(C)C(=O)OCC(C)(COC(=O)N(CC[n+]1ccccc1)C(C)=O)OC (centres unmarked) | 100% |
| CCCCCCCCCCCCCCCCCCN(C)C(=O)OCC(C)(COCCCCCCCn1cc[n+](C)c1)OC (centres unmarked) | 93% |
| CCCCCCCCCCCCCCCCCCN(C)C(=O)OCC(C)(COCCCCCCC[N+]1(C)CCSC1)OC (centres unmarked) | 93% |

Same assay, conditions: Dose 50 μM, 37° C, 2 min preincubation, PAF 1-5×10^-8 M, read-out: Percent Inhibition

| Structure (SMILES) | inhibition at 50 µM |
| --- | --- |
| CCCCCCCCCCCCCCCCOCC(C)(COC(=O)OCC[N+]1(C)CCCC1)OC (centres unmarked) | 32% |
| CCCCCCCCCCCCCCCCCCN(C)C(=O)OCC(C)(COP(=O)([O-])OCC[n+]1ccccc1)OC (centres unmarked) | 43% |
| CCCCCCCCCCCCCCCCCCN(C)C(=O)OCC(C)(COCCCCCCC[n+]1ccsc1)OC (centres unmarked) | 100% |
| CCCCCCCCCCCCCCCCCCN(C)C(=O)OCC(CC)(COP(=O)([O-])OCC[n+]1ccsc1)OC (centres unmarked) | 100% |
| CCCCCCCCCCCCCCCCCCN(C)C(=O)OCC(CC)(COP(=O)(O)OCCn1ccnc1)OC (centres unmarked) | 23% |
| CCCCCCCCCCCCCCCCOCC(C)(COC(=O)OCC[n+]1ccccc1)OC (centres unmarked) | 68% |
| CCCCCCCCCCCCCCCCCCN(C)C(=O)OCC(COP(=O)([O-])OCC[n+]1ccsc1)(OC)C(C)C (centres unmarked) | 100% |
| CCCCCCCCCCCCCCCCCCN(C)C(=O)OCC(C)(COCCCCCCC[n+]1ccsc1)SC (centres unmarked) | 100% |
| CCCCCCCCCCCCCCCCCCN(C)C(=O)OCC(C)(COC(=O)NCC[N+](C)(C)C)OC (centres unmarked) | 67% |
| CCCCCCCCCCCCCCCCCCN(C)C(=O)OCC(C)(COC(=O)NCC[n+]1ccsc1)OC (centres unmarked) | 97% |
| CCCCCCCCCCCCCCCCCCN(C)C(=O)OCC(C)(COCCCCCCC[n+]1ccsc1)[S+](C)[O-] (centres unmarked) | 100% |
| CCCCCCCCCCCCCCCCOCC(C)(COC(=O)NCC[n+]1ccsc1)OC (centres unmarked) | 44% |
| CCCCCCCCCCCCCCCCCCN(C)C(=O)OCC(C)(COCCCCCCCN1CCSC1)OC (centres unmarked) | 10% |
| CCCCCCCCCCCCCCCCCCN(C)C(=O)OCC(C)(COCCCCCCCn1cnc(CC(=O)OCc2ccccc2)c1)OC (centres unmarked) | 19% |
| CCCCCCCCCCCCCCCCCCN(C)C(=O)OCC(C)(COCCCCCCCn1cnc(CC(=O)O)c1)OC (centres unmarked) | 19% |
| CCCCCCCCCCCCCCCCCCN(C)C(=O)OCC(C)(COCCCCCCCOC(=O)C1CSCN1)OC (centres unmarked) | 3% |
| CCCCCCCCCCCCCCCCCCN(C)C(=O)OCC(C)(COCc1ccc(C[n+]2ccsc2)cc1)OC (centres unmarked) | 100% |
| CCCCCCCCCCCCCCCCCCN(C)C(=O)OCC(C)(COCCCCCCC[n+]1ccsc1)S(C)(=O)=O (centres unmarked) | 100% |
| CCCCCCCCCCCCCCCCCCN(C)C(=O)OCC(C)(CC)COCCCCCCC[n+]1ccsc1 (centres unmarked) | 100% |
| CCCCCCCCCCCCCCCCCCN(C)C(=O)OCC(C)(COCCCCCCCOC(=O)C(N)CSC)OC (centres unmarked) | 28% |
| CCCCCCCCCCCCCCCCCCN(C)C(=O)OCC(C)(CNC(=O)OCC[n+]1ccccc1)OC (centres unmarked) | 100% |
| CCCCCCCCCCCCCCCCCCN(C)C(=O)OCC(C)(COC(=O)NCCCCC[n+]1ccsc1)OC (centres unmarked) | 100% |
| CCCCCCCCCCCCCCCCCCN(C)C(=O)OCC(C)(CNC(=O)OCC[N+](C)(C)C)OC (centres unmarked) | 83% |
| CCCCCCCCCCCCCCCCCCN(C)C(=O)OCC(C)(CNS(=O)(=O)CCn1ccnc1)OC (centres unmarked) | 12% |
| CCCCCCCCCCCCCCCCCCN(C)C(=O)OCC(C)(COCCCCCCCn1ccnc1N)OC (centres unmarked) | 17% |
| COC(C)(COCCCCCCC[n+]1ccsc1)COC(=O)Nc1ccccc1 (centres unmarked) | 100% |
| CC(COCc1ccc(CN2CCSC2=N)cc1)(COC(=O)Nc1ccccc1)S(C)(=O)=O (centres unmarked) | 90% |
| COC(C)(COCCCCCCCN1CCSC1=N)COC(=O)Nc1ccc(F)cc1F (centres unmarked) | 91% |

Same assay, conditions: Dose 100 μM, 37° C, 2 min preincubation, PAF 1-5×10^-8 M, read-out: Percent Inhibition

| Structure (SMILES) | inhibition at 100 µM |
| --- | --- |
| CCCCCCCCCCCCCCCCOCC(C)(COC(=O)OCC[N+](C)(C)C)OC (centres unmarked) | 100% |
